How the values were obtained:
PRMT5 [1] = target: T1, PRMT5 (Homo sapiens, UniProt O14744); experiment: PRMT5 IC50 assay with no cofactor; format: biochemical
T1 construct: purchased Viva (custom protein)
Summary of the method: (§1)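 For the SAM-containing format, dividing IC50 by 1.5 yields Ki; for the MTA-containing format the divisor is 13.5. A third format without cofactor gives IC50 alone.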

HAP1 MTAP-intact = experiment: SDMA in-cell western assay, HAP1 MTAP-intact cell line; format: cell-based; settings: Homo sapiens
Summary of the method: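 Potency reflects cellular SDMA reduction, detected by in-cell western, in HAP1 cells with or without MTAP (endogenous expression versus null).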

PRMT5 [2] = target: T1, PRMT5; experiment: PRMT5 IC50 assay in the presence of SAM as cofactor; format: biochemical
Summary of the method: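 Each compound is tested on PRMT5 in the presence of SAM, of MTA, and without any cofactor. Ki values are then back-calculated using fixed factors of 1.5 (SAM) and 13.5 (MTA), and the two Ki values are compared as a ratio.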

PRMT5 [3] = target: T1, PRMT5; experiment: PRMT5 IC50 assay in the presence of MTA as cofactor; format: biochemical; settings: for IC50: PRMT5, MTA as cofactor
Summary of the method: as §1

HAP1 MTAP-deleted = experiment: SDMA in-cell western assay, HAP1 MTAP-deleted cell line; format: cell-based; settings: for IC50: Homo sapiens, HAP1 MTAP-deleted cell line; for MTAP Intact/Deleted Ratio: IC50 ratio HAP1 MTAP-intact / HAP1 MTAP-deleted
Summary of the method: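 These are IC50 values from an in-cell western measuring SDMA. The HAP1 cells used carry no MTAP, in contrast to the isogenic partner line with endogenous MTAP expression.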

[4] = ratio between the Ki in the presence of SAM and the Ki in the presence of MTA

T1 sequence (O14744 whole entry): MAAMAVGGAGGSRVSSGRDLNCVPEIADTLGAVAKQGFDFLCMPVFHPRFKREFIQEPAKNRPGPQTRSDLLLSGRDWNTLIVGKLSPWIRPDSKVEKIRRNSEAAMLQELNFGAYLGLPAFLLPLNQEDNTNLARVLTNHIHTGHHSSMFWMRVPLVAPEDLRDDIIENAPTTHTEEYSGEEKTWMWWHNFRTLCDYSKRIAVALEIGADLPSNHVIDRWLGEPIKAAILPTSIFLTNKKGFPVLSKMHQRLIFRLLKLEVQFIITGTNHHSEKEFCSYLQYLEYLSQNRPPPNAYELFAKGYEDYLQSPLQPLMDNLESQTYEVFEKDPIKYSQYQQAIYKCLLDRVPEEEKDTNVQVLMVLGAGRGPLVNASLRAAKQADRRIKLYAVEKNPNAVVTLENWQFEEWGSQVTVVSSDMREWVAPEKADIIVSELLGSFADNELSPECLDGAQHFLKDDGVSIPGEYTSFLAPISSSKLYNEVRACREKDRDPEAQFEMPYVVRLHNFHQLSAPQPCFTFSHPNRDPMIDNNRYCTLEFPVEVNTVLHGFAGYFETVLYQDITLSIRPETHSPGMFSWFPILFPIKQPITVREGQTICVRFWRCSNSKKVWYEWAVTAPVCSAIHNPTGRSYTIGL
T1 sequence (Q9BQA1 whole entry partner): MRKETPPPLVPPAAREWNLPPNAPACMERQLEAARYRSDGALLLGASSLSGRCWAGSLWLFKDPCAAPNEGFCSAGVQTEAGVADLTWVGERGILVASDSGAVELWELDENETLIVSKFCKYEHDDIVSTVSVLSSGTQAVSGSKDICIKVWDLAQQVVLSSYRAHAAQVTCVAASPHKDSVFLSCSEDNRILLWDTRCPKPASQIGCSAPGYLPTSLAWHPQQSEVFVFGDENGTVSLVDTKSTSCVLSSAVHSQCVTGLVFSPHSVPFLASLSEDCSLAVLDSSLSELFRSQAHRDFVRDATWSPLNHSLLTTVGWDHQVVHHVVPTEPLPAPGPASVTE

| SMILES | IC50 (PRMT5 [1]) [nM] | IC50 (HAP1 MTAP-intact) [nM] | IC50 (PRMT5 [2]) [nM] | IC50 (PRMT5 [3]) [nM] | IC50 (HAP1 MTAP-deleted) [nM] | IC50 (PRMT5 [1]; read-out: No Co-factor IC50) [nM] | SAM/MTA Ratio (PRMT5 [3]; [4]) | MTAP Intact/Deleted Ratio (HAP1 MTAP-deleted) | SAM/MTA Ratio (PRMT5 [3]; ratio between Ki in the presence of SAM and Ki in the presence of MTA) |
| --- | --- | --- | --- | --- | --- | --- | --- | --- | --- |
| CC(C)N1CCN(c2cc(C(=O)NC[C@H](O)CN3CCc4c(ccc(OCc5cnco5)c4Cl)C3)cc(NC3CCC3)n2)CC1 [Compound 566] | 500 to 5000 | ≥ 10000 | 50 to 500 | 50 to 500 | ≥ 10000 |  | A (a Ki ratio greater than or equal to 10 fold between the Ki in the presence of SAM and the Ki in the presence of MTA) | C* (an IC50 ratio of less than 3 fold between the IC50 in the HAP1 MTAP-intact cell line and the HAP1 MTAP-deleted cell line) |  |
| CCCN(C)c1cc(C(=O)NC[C@H](O)CN2CCc3c(ccc(OCc4ocnc4C)c3C)C2)cc(NC2CCC2)n1 [Compound 480, 2-(cyclobutylamino)-N-[(2S)-2-hydroxy-3-{5-methyl-6-[(4-methyl-1,3-oxazol-5-yl)methoxy]-1,2,3,4-tetrahydroisoquinolin-2-yl}propyl]-6-[methyl(propyl)amino]pyridine-4-carboxamide] | ≥ 5000 | ≥ 10000 | 50 to 500 | 50 to 500 | ≥ 10000 |  | A (a Ki ratio greater than or equal to 10 fold between the Ki in the presence of SAM and the Ki in the presence of MTA) | C* (an IC50 ratio of less than 3 fold between the IC50 in the HAP1 MTAP-intact cell line and the HAP1 MTAP-deleted cell line) |  |
| Cc1ncoc1COc1ccc2c(c1)CCN(C[C@@H](O)CNC(=O)c1cc(NC3CCC3)ncc1Cl)C2 [Compound 607, 5-chloro-2-(cyclobutylamino)-N-[(2S)-2-hydroxy-3-[6-[(4-methyloxazol-5-yl)methoxy]-3,4-dihydro-1H-isoquinolin-2-yl]propyl]pyridine-4-carboxamide] | ≥ 5000 | < 1000 | 50 to 500 | 50 to 500 | < 1000 |  | A (a Ki ratio greater than or equal to 10 fold between the Ki in the presence of SAM and the Ki in the presence of MTA) | C* (an IC50 ratio of less than 3 fold between the IC50 in the HAP1 MTAP-intact cell line and the HAP1 MTAP-deleted cell line) |  |

Now from value to compound, other results behind:

| IC50 (PRMT5 [1]) [nM] | IC50 (HAP1 MTAP-intact) [nM] | IC50 (PRMT5 [2]) [nM] | IC50 (PRMT5 [3]) [nM] | IC50 (HAP1 MTAP-deleted) [nM] | IC50 (PRMT5 [1]; read-out: No Co-factor IC50) [nM] | SMILES | SAM/MTA Ratio (PRMT5 [3]; [4]) | MTAP Intact/Deleted Ratio (HAP1 MTAP-deleted) | SAM/MTA Ratio (PRMT5 [3]; ratio between Ki in the presence of SAM and Ki in the presence of MTA) |
| --- | --- | --- | --- | --- | --- | --- | --- | --- | --- |
| 500 to 5000 | ≥ 10000 | 50 to 500 | 50 to 500 | 1000 to 10000 |  | CC(=O)N1CCC(Nc2cc(C(=O)NC[C@H](O)CN3CCc4cc(OCc5ocnc5C)ccc4C3)cc(N3CCN(C(C)=O)CC3)n2)CC1 [Compound 594, 2-(4-acetylpiperazin-1-yl)-6-[(1-acetylpiperidin-4-yl)amino]-N-[(2S)-2-hydroxy-3-{6-[(4-methyl-1,3-oxazol-5-yl)methoxy]-1,2,3,4-tetrahydroisoquinolin-2-yl}propyl]pyridine-4-carboxamide] | A (a Ki ratio greater than or equal to 10 fold between the Ki in the presence of SAM and the Ki in the presence of MTA) | C* (an IC50 ratio of less than 3 fold between the IC50 in the HAP1 MTAP-intact cell line and the HAP1 MTAP-deleted cell line) |  |
|  | ≥ 10000 | 500 to 5000 | 50 to 500 | ≥ 10000 | ≥ 5000 | Cc1c(OCc2cnco2)ccc2c1CCN(C[C@@H](O)CNC(=O)c1cccc(NC3CCC3)c1)C2 [Compound 351, 3-(cyclobutylamino)-N-[(2S)-2-hydroxy-3-{5-methyl-6-[(1,3-oxazol-5-yl)methoxy]-1,2,3,4-tetrahydroisoquinolin-2-yl}propyl]benzamide] |  | C* (an IC50 ratio of less than 3 fold between the IC50 in the HAP1 MTAP-intact cell line and the HAP1 MTAP-deleted cell line) | A (a Ki ratio greater than or equal to 10 fold between the Ki in the presence of SAM and the Ki in the presence of MTA) |

From patent publication US11986471B2, “Compounds and methods of use” (Tango Therapeutics, Inc., priority 2018, dated 2024)
